One may read the EC50 as the midpoint of the concentration-response curve. In general, AUC(0-inf) refers to the area under the concentration-time curve extrapolated to infinity. Broadly, the Cmax is the maximum level reached in the sampled fluid or tissue. As a reminder, the Tmax is the time at which the peak concentration occurs.

Structures are written as SMILES. Where two headings read alike, the source gives them in different places.

The target of one data set is T1, human S1P1 (Homo sapiens, UniProt P21453).
T1 construct: expressed in transfected cells; host or cells: CHO-S cells
T1 sequence (P21453 whole entry): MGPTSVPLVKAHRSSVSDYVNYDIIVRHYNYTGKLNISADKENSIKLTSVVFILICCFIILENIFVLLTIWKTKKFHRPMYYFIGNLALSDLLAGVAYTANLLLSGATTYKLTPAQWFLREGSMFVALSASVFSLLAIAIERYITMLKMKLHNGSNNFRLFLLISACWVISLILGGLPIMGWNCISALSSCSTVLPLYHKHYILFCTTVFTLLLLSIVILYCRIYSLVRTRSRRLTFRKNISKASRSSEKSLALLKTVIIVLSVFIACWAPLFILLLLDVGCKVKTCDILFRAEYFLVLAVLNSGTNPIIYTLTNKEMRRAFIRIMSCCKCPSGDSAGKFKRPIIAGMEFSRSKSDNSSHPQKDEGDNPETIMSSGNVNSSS
Briefly: Internalization effect experiment on S1P1 (CHO-S cells, Myc tag, flow cytometry). Type of data set: cell-based. From the text: It is well known that S1P1 small molecule agonists can prevent lymphocytes from entering the peripheral circulation by inducing internalization of S1P1 on cell surface. In order to determine whether the compounds provided by present invention have an activity of inducing S1P1 internalization, CHO—S cells expressing human S1P1, to replace the lymphocytes, are used as detection system of S1P1 internalization. For ease of monitoring the S1P1 on cell surface, a Myc tag is fused to N-terminal of S1P1, thus the expression of S1P1 is analyzed by flow cytometry after incubating the cells with fluorescent-labeled antibody against the Myc tag.
A 10 mM stock solution was prepared by dissolving compound 2 provided by the present invention in dimethyl sulfoxide (DMSO), and then the stock solution was diluted to different concentrations as desired with DMEM. CHO—S cells bearing human S1P1 with Myc tag were harvested and then adjusted to a density of one million cells per mL by Dulbecco's modified Eagle's medium (DMEM). Different concentrations of Compound 2 diluted in an equal volume were mixed and the cell suspension and then incubated at 37° C. for 1 hour. After incubation, the mixture was centrifuged at 800 RPM for 5 minutes to obtain the cells. The cells were resuspended in FACS buffer (PBS containing 1% BSA), and Myc antibody labelled with fluorescein isothiocyanate (FITC) (from Californian Miltenyi Biotec GmbH, USA) was added in and incubated for 1 hour on ice. The cells were washed, resuspended in pre-cooled FACS buffer and analysed by FACS Calibur flow cytometry.
(A flow cytometer gives signals particle by particle.)

Data set [1] has as its system lymphocytes in the peripheral blood. Briefly: Effect on the number of lymphocytes in the peripheral blood. The note with it: oral, SD rats. Type of data set: in vivo, Sprague-Dawley (SD) rats. From the text: S1P1, which is expressed on the surface of lymphocytes, is essential for lymphocytes to leave the secondary lymphoid tissue and then enter into the peripheral circulation. Small molecule agonists of S1P1 can activate the receptor and result in an internalization effect on the receptor. This mechanism is a currently known mechanism by which lymphocytes are prevented from leaving the secondary lymphoid tissue, then resulting in an decreased number of lymphocytes in the peripheral circulation. In order to determine whether the compounds provided by present invention can reduce the number of lymphocytes in the peripheral blood, an in vivo effect experiment on lymphocytes is performed.
An appropriate amount of compound 2 was prepared as a suspension with sodium carboxymethylcellulose (CMC-Na) and was given orally to three Sprague-Dawley (SD) rats. Blood samples (0.5 ml) were collected at 30 min before the administration and at different time points after the administration (the collected blood samples were placed in EP tubes containing an appropriate amount of EDTA-2K solution), and analyzed on ADVIA2120 blood cell analyzer directly.

Data set [2] concerns Collagen Type II-Induced Arthritis. Briefly: Collagen type II-induced arthritis (rat CIA model). Type of data set: in vivo, Lewis rats. The note with it: oral, 1 mg/kg.
Method: To perform the testing, Lewis rats were induced to develop the disease as follows. Rats were anesthetized with isoflurane and were injected intradermally with a total of 0.5 mL CII/CFA emulsion. The emulsion was injected at 3 sites, one site at the base of the tail (0.1 mL), and the other two sites (0.2 mL/site) on the back of the rat near to the base of the tail. An identical booster injection was given i.d. at 7 days after the primary immunization avoiding previous injection sites.
The positive control group was given TOFACITINIB orally on day 12 after sensitization. The severity of arthritis in four paws was scored 2 times per week starting on day 7 after sensitization. The criteria was as follows: score 0: No evidence of erythema and swelling; score 1: Erythema and mild swelling confined to the mid-foot (tarsals) or ankle joint; score 2: Erythema and mild swelling extending from the ankle to the mid-foot; score 3: Erythema and moderate swelling extending from the ankle to the metatarsal joints; score 4: Erythema and severe swelling encompass the ankle, foot, and digits. Joint swelling, measured by the volume of hind paws using Plethysmometer, was determined on Day 0, and then 2 times per week from Day 7 to Day 28. Destruction of the joint was determined by X-Ray examination on Day 28.
Data set [3] in a line: In vivo pharmacokinetic experiment, oral administration. To be noted: for half-life: po, 3 mg/kg. Also on record: species or system Sprague Dawley rats. How it is done: In this Example, the pharmacokinetic properties of compounds 1, 2, 3, 4 and 5 were evaluated via. i.v. and p.o. dosing to Sprague Dawley rats.
Experimental animals used in this Example and hereinafter were male SD rats of 7-9 weeks old, with body weight ranging from 186 to 231 g, which were purchased from Beijing Vital River Laboratory Animal Technology Co., Ltd. The animals were quarantined by veterinarian for 5 days after purchase, then animals had passed quarantine inspection were selected to be tested under SPE conditions, wherein the tested animals are assigned into 3 rats per group as follows.
Oral administration group: 2.74 mg of each of compounds 1-5 was respectively prepared into a solution of 0.3 mg/mL by using 9.113 mL 0.5% CMC-Na as a diluent. Each solution was vortexed 1-2 mins after mixed fully, and then was ultrasonically treated for 20-30 mins until a uniform suspension was obtained. The uniform suspension was used as medicine administrated to oral administration group, and the administration was conducted with a dose of 10 mL/kg body weight of each rat.
For both oral administration group and intravenous administration group, blood samples were collected at 0.0833 h (5 min), 0.25 h (15 min), 0.5 h, 1 h, 2 h, 4 h, 8 h, and 24 h after administration. After isoflurane anesthesia 0.3 mL whole blood was collected from orbital venous plexus of the animals at each time point. The animals would be euthanized after all samples were collected.
The collected blood samples were placed in EP tubes containing heparin sodium (about 10 μl, 1000 IU/mL), which were then placed in trash ice immediately, and centrifuged at 4,000 rpm and a low temperature (4° C.) for 5 minutes. The plasma was isolated rapidly and then stored at −20° C. until analysis.
The concentration of each compound in blood was measured by LC-MS/MS-001 (Q-trap-3200) with osalmide as internal standard material, as follows. 24 μL blank plasma was added into 6 μL plasma sample (5 times of dilution), and then a solution of acetonitrile containing 150 μL internal standard material (osalmide in 100 μg/mL) was added in. The mixture was shaken for 5 minutes, and then centrifuged at 4,000 rpm for 5 minutes. 2 μL of the obtained sample was implanted into LC-MS/MS for analysis. As for undiluted plasma sample, 30 μL of it was added into a solution of acetonitrile containing 150 μL internal standard material (osalmide in 100 μg/mL). The mixture was shaken for 5 minutes, and then centrifuged at 4,000 rpm for 5 minutes. 2 μL of the obtained sample was implanted into LC-MS/MS for analysis.
As for data analysis, WinNolin (V6.2) non-compartment model (NCA) was used for calculating main metabolic pharmacokinetic parameters including t1/2, AUC(0−t), AUCinf, V, Cl, MRT, etc., and Microsoft Office EXCEL was used for calculating mean values, standard deviations and coefficients of variation.

The target of the next data set is human S1P3 (Homo sapiens, UniProt Q99500). Briefly: Internalization effect experiment of S1P3 (CHO-S cells). Type of data set: cell-based. How it is done: CHO—S cells bearing human S1P1 with Myc tag were harvested and then adjusted to a density of one million cells per mL by Dulbecco's modified Eagle's medium (DMEM). […] After incubation, the mixture was centrifuged at 800 RPM for 5 minutes to obtain the cells. The cells were resuspended in FACS buffer (PBS containing 1% BSA), and Myc antibody labelled with fluorescein isothiocyanate (FITC) (from Californian Miltenyi Biotec GmbH, USA) was added in and incubated for 1 hour on ice. The cells were washed, resuspended in pre-cooled FACS buffer and analysed by FACS Calibur flow cytometry.
human S1P3, sequence (Q99500 whole entry): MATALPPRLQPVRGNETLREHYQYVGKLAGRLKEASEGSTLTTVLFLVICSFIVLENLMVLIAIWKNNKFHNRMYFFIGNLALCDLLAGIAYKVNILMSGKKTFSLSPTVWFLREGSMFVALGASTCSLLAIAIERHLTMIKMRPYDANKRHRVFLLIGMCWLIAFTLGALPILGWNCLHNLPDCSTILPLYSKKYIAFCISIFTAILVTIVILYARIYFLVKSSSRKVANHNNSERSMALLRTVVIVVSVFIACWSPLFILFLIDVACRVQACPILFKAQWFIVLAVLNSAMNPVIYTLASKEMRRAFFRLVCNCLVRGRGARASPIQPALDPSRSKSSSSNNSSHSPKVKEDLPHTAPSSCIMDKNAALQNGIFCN
CHO—S cells expressing human S1P3 were used to perform internalization detection test. Besides cells, experimental method was the same with the method of the internalized detection experiment of S1P1.

Setting [4] is: male, Sprague-Dawley, rat, plasma, oral administration (3 mg/kg), SD rats.

`CC(C)Cc1ccc(-c2nc(-c3ccc(CN4CC(C(=O)O)C4)c(F)c3)no2)cc1` [Compound 2, 1-{2-fluoro-4-[5-(4-isobutylphenyl)-1,2,4-oxadiazol-3-yl]-benzyl}-3-azetidine carboxylic acid]: the EC50 is 9.83 nM at human S1P1 (CHO-S cells expressing human S1P1, 1 hour at 37° C., read-out: Receptor Internalization (EC50) S1P1) and above 1000 nM on human S1P3 (CHO-S cells expressing human S1P3, read-out: Receptor Internalization (EC50) S1P3). Besides, the “activity of inducing S1P1 internalization” value at human S1P1 (CHO-S cells expressing human S1P1, in words) is reported as “dose-dependent manner”. Further, the “number of peripheral mononuclear cells and other leukocytes” value in data set [1] (in words) is on record as “unobviously”. Further, the “reduction of lymphocytes in the peripheral blood” value in data set [1] (dose of 0.01 mg/kg) is listed as “more than 50%”; in data set [1] (dose of 1 mg/kg, in words), “the most reduction”. The “number of lymphocytes in the peripheral blood” value in data set [1] (three doses, 30 to 480 minutes after administration, in words) is “reduced the number of lymphocytes in the peripheral blood effectively”. In data set [2] (Lewis rats, FIG. 5), the “development of arthritis based on joint swelling” value is “effective in inhibiting the development of arthritis”. The “development of arthritis based on destruction of joint structure” value in data set [2] (X-Ray on Day 28, Lewis rats, FIG. 6) is “effective in inhibiting the development of arthritis”. Besides, in data set [3] (after oral administration, rats), the “half-life shortening relative to compound 1” value is listed as around 50%. For the same compound, the half-life is below 5.5 h in data set [3] (male, Sprague-Dawley, rat, plasma, after oral administration, rats, read-out: terminal half-life (converted)) and 5.47 ± 0.63 h in data set [3] (male, Sprague-Dawley, rat, plasma, oral administration (3 mg/kg), SD rats, read-out: T½ (converted)). The compound also showed an AUC(0-inf) in data set [3] (setting [4]) of 3830 ± 184 ng·h/mL. This compound also gave a Cmax in data set [3] (setting [4]) of 341 ± 36.2 ng/mL. Moreover, the Tmax in data set [3] (setting [4]) was determined as 2 h. In data set [3] (oral administration (3 mg/kg), SD rats), this compound came in with an F of 63.4%. In addition, the “elimination speed after the highest concentration, compared with compounds 1 and 5” value in data set [3] (oral administration, rats, FIGS. 1A and 1B, in words) is “accelerated obviously”. At human S1P3 (CHO-S cells expressing human S1P3, in words), the “internalization activation effect on S1P3 subtype” value is on record as “no internalization activation effect on S1P3 subtype”.

(Values after patent US10280158B2, “Immune adjustment compound, use thereof and pharmaceutical composition comprising same” (SUZHOU CONNECT BIOPHARMACEUTICALS, LTD., priority 2013, dated 2019).)
